# Reference: patent US7186714B2, “Imidazo[1,2-α]pyridine derivatives for the prophylaxis and treatment of herpes viral infections” (SmithKline Beecham Corporation, priority 2001, dated 2007)
# Test system: HSV-1
# Test: HSV infection of Vero 76 cells, viral DNA detected by hybridization capture with chemiluminescence
# Format: cell-based
# Conditions: Human alphaherpesvirus 1; HSV-1 in Vero 76 cells, MOI=0.001, incubated 40–48 hours with test compound
# Experimental: Vero 76 cells were maintained in MEM with Earle's salts, L-glutamine, 8% FBS (Hyclone, A-1111-L) and 100 units/mL Penicillin-100 μg/mL Streptomycin. For assay conditions, FBS was reduced to 2%. Cells are seeded into 96-well tissue culture plates at a density of 5×10^4 cells/well after being incubated for 45 min at 37° C. in the presence of HSV-1 or HSV-2 (MOI=0.001). Test compounds are added to the wells and the plates are incubated at 37° C. for 40–48 hours. Cell lysates are prepared as follows: media was removed and replaced with 150 μL/well 0.2 N NaOH with 1% Igepal CA 630 or NP-40. Plates were incubated up to 14 days at room temperature in a humidified chamber to prevent evaporation.
# For the detection probe, a gel-purified, digoxigenin-labeled, 710-bp PCR fragment of the HSV UL-15 sequence was utilized. PCR conditions included 0.5 μM primers, 180 μM dTTP, 20 μM dUTP-digoxigenin (Boehringer Mannheim 1558706), 200 μM each of dATP, dCTP, and dGTP, 1×PCR Buffer II (Perkin Elmer), 2.5 mM MgCl2, 0.025 units/μL of AmpliTaq Gold polymerase (Perkin Elmer), and 5 ng of gel-purified HSV DNA per 100 μL Extension conditions were 10 min at 95° C., followed by 30 cycles of 95° C. for 1 min, 55° C. for 30 sec, and 72° C. for 2 min. The amplification was completed with a 10-min incubation at 72° C. Primers were selected to amplify a 728 bp probe spanning a section of the HSV1 UL15 open reading frame (nucleotides 249–977). Single-stranded transcripts were purified with Promega M13 Wizard kits. The final product was mixed 1:1 with a mixture of 6 M GuSCN, 100 mM EDTA and 200 μg/mL herring sperm DNA and stored at 4° C.
# The capture DNA plasmid (HSV UL13 region in pUC) was linearized by cutting with XbaI, denatured for 15 min at 95° C. and diluted immediately into Reacti-Bind DNA Coating Solution (Pierce, 17250, diluted 1:1 with TE buffer, pH 8) at 1 ng/μL 75 μL/well were added to Corning (#3922 or 9690) white 96-well plates and incubated at room temperature for at least 4 hrs before washing twice with 300 μL/well 0.2×SSC/0.05% Tween-20 (SSC/T buffer). The plates were then incubated overnight at room temperature with 150 μL/well 0.2 N NaOH, 1% IGEPAL and 10 μg/mL herring sperm DNA.
# Twenty-seven (27) μL of cell lysate was combined with 45 μL of hybridization solution (final concentration: 3M GuSCN, 50 mM EDTA, 100 μg/ml salmon sperm DNA, 5×Denhardt's solution, 0.25×APE, and 5 ng of the digoxigenin-labeled detection probe). APE is 1.5 M NH4-acetate, 0.15 M ammonium phosphate monobasic, and 5 mM EDTA adjusted to pH 6.0. Mineral oil (50 μL) was added to prevent evaporation. The hybridization plates were incubated at 95° C. for 10 minutes to denature the DNA, then incubated at 42° C. overnight. The wells were washed 6× with 300 μL/well SSC/T buffer then incubated with 75 μL/well anti-digoxigenin-HRP-conjugated antibody (Boehringer Mannheim 1207733, 1:5000 in TE) for 30 min at room temperature. The wells were washed 6× with 300 μL/well with PBS/0.05% Tween-20 before 75 μL/well SuperSignal LBA substrate (Pierce) was added. The plates were incubated at room temperature for 30 minutes and chemiluminescence was measured in a Wallac Victor reader.
row,SMILES,IC50 [nM]
1,"O=[N+]([O-])c1cccc(-c2nc3c(N4CCOCC4)cccn3c2-c2ccnc(NC3CCCC3)n2)c1 [Example 31, N-Cyclopentyl-4-[8-(4-morpholinyl)-2-(3-nitrophenyl)imidazo[1,2-α]pyridin-3-yl]-2-pyrimidinamine]",1200
2,"Nc1cccc(-c2nc3c(Cl)cccn3c2-c2ccnc(NC3CCCC3)n2)c1 [Example 32, 4-[2-(3-Aminophenyl)-8-chloroimidazo[1,2-α]pyridin-3-yl]-N-cyclopentyl-2-pyrimidinamine]",3300
3,"N#Cc1cccc(-c2nc3c(Cl)cccn3c2-c2ccnc(NC3CCCC3)n2)c1 [Example 36, 3-{8-Chloro-3-[2-(cyclopentylamino)-4-pyrimidinyl]imidazo[1,2-α]pyridin-2-yl}benzonitrile]",650
4,"Fc1ccc(-c2nc3c(Cl)cc(Cl)cn3c2-c2ccnc(NC3CCCC3)n2)cc1 [Example 38, N-Cyclopentyl-4-[6,8-dichloro-2-(4-fluorophenyl)imidazo[1,2-α]pyridin-3-yl]-2-pyrimidinamine]",950
5,"Fc1ccc(-c2nc3c(Br)cc(Br)cn3c2-c2ccnc(NC3CCCC3)n2)cc1 [Example 40, N-Cyclopentyl-4-[6,8-dibromo-2-(4-fluorophenyl)imidazo[1,2-a]pyridin-3-yl]-2-pyrimidinamine]",790
6,"CCCCNc1cc(Br)cn2c(-c3ccnc(NC4CCCC4)n3)c(-c3ccc(F)cc3)nc12 [Example 42, 6-Bromo-N-butyl-3-[2-(cyclopentylamino)-4-pyrimidinyl]-2-(4-fluorophenyl)imidazo[1,2-a]pyridin-8-amine]",290
7,"Fc1ccc(-c2nc3c(N4CCOCC4)cc(N4CCOCC4)cn3c2-c2ccnc(NC3CCCC3)n2)cc1 [Example 43, N-Cyclopentyl-4-[2-(4-fluorophenyl)-6,8-di(4-morpholinyl)imidazo[1,2-a]pyridin-3-yl]-2-pyrimidinamine]",470
8,"Cc1cc(Br)cn2c(-c3ccnc(NC4CCCC4)n3)c(-c3ccc(F)cc3)nc12 [Example 44, N-{4-[6-Bromo-2-(4-fluorophenyl)-8-methylimidazo[1,2-a]pyridin-3-yl]-2-pyrimidinyl}-N-cyclopentylamine]",1200
9,"Fc1ccc(-c2nc3ccc(Br)cn3c2-c2ccnc(NC3CCCC3)n2)cc1 [Example 47, N-{4-[6-Bromo-2-(4-fluorophenyl)imidazo[1,2-a]pyridin-3-yl]-2-pyrimidinyl}-N-cyclopentylamine]",4000
10,"Fc1ccc(-c2nc3ccc(N4CCOCC4)cn3c2-c2ccnc(NC3CCCC3)n2)cc1 [Example 50, N-Cyclopentyl-4-[2-(4-fluorophenyl)-6-(4-morpholinyl)imidazo[1,2-a]pyridin-3-yl]-2-pyrimidinamine]",180
11,"CCCCNc1cccn2c(-c3ccnc(NC4CCCC4)n3)c(-c3cccc(N=[N+]=[N-])c3)nc12 [Example 56, 2-(3-Azidophenyl)-N-butyl-3-[2-(cyclopentylamino)pyrimidin-4-yl]imidazo[1,2-a]pyridin-8-amine]",2900
12,"Fc1ccc(-c2nc3c(OCc4ccccc4)cccn3c2-c2ccnc(NC3CCCC3)n2)cc1 [Example 57, 4-[8-(Benzyloxy)-2-(4-fluorophenyl)imidazo[1,2-a]pyridin-3-yl]-N-cyclopentylpyrimidin-2-amine]",970

# More lines, now with the values ahead:
row,IC50 [nM],SMILES
1,1600,"Nc1cccc(-c2nc3c(NC4CCCC4)cccn3c2-c2ccnc(NC3CCCC3)n2)c1 [Example 33, 2-(3-Aminophenyl)-N-cyclopentyl-3-[2-(cyclopentylamino)-4-pyrimidinyl]imidazo[1,2-α]pyridin-8-amine]"
2,1500,"c1cc(NCC2CC2)cc(-c2nc3c(NC4CCCC4)cccn3c2-c2ccnc(NC3CCCC3)n2)c1 [Example 34, N-Cyclopentyl-3-[2-(cyclopentylamino)-4-pyrimidinyl]-2-{3-[(cyclopropylmethyl)amino]phenyl}imidazo[1,2-α]pyridin-8-amine]"
3,1460,"c1cc(-c2nc3c(NC4CCCC4)cccn3c2-c2ccnc(NC3CCCC3)n2)cc(N(CC2CC2)CC2CC2)c1 [Example 35, 2-{3-[Bis(cyclopropylmethyl)amino]phenyl}-N-cyclopentyl-3-[2-(cyclopentylamino)-4-pyrimidinyl]imidazo[1,2-α]pyridin-8-amine]"
4,1400,"Fc1ccc(-c2nc3c(NC4CCCC4)cc(Cl)cn3c2-c2ccnc(NC3CCCC3)n2)cc1 [Example 39, N-{4-[6-Chloro-8-(cyclopentylamino)-2-(4-fluorophenyl)imidazo[1,2-α]pyridin-3-yl]-2-pyrimidinyl}-N-cyclopentylamine]"
5,180,"Fc1ccc(-c2nc3c(NC4CCCC4)cc(Br)cn3c2-c2ccnc(NC3CCCC3)n2)cc1 [Example 41, N-{4-[6-Bromo-8-(cyclopentylamino)-2-(4-fluorophenyl)imidazo[1,2-a]pyridin-3-yl]-2-pyrimidinyl}-N-cyclopentylamine]"
6,140,"Cc1cc(NC2CCCC2)cn2c(-c3ccnc(NC4CCCC4)n3)c(-c3ccc(F)cc3)nc12 [Example 45, N-Cyclopentyl-3-[2-(cyclopentylamino)-4-pyrimidinyl]-2-(4-fluorophenyl)-8-methylimidazo[1,2-a]pyridin-6-amine]"
7,1500,"Cc1cccn2c(-c3ccnc(NC4CCCC4)n3)c(-c3ccc(F)cc3)nc12 [Example 46, N-Cyclopentyl-4-[2-(4-fluorophenyl)-8-methylimidazo[1,2-a]pyridin-3-yl]-2-pyrimidinamine]"
8,2100,"Fc1ccc(-c2nc3ccc(NC4CCCC4)cn3c2-c2ccnc(NC3CCCC3)n2)cc1 [Example 48, N-Cyclopentyl-3-[2-(cyclopentylamino)-4-pyrimidinyl]-2-(4-fluorophenyl)imidazo[1,2-a]pyridin-6-amine]"
9,3300,"Fc1ccc(-c2nc3ccccn3c2-c2ccnc(NC3CCCC3)n2)cc1 [Example 49, N-Cyclopentyl-4-[2-(4-fluorophenyl)imidazo[1,2-a]pyridin-3-yl]-2-pyrimidinamine]"
10,510,"Fc1ccc(-c2nc3c(NC4CC4)cccn3c2-c2ccnc(NC3CCCC3)n2)cc1 [Example 51, 3-[2-(cyclopentylamino)-4-pyrimidinyl]-N-cyclopropyl-2-(4-fluorophenyl)imidazo[1,2-a]pyridin-8-amine]"
11,620,"C=CCOc1ccc(-c2nc3c(NC4CCCC4)cccn3c2-c2ccnc(NC3CCCC3)n2)cc1 [Example 52, 2-[4-(Allyloxy)phenyl]-N-cyclopentyl-3-[2-(cyclopentylamino)-4-pyrimidinyl]imidazo[1,2-a]pyridin-8-amine]"
12,200,"c1cc(NC2CCCC2)c2nc(-c3ccc(OCC4CC4)cc3)c(-c3ccnc(NC4CCCC4)n3)n2c1 [Example 53, N-Cyclopentyl-3-[2-(cyclopentylamino)-4-pyrimidinyl]-2-[4-(cyclopropylmethoxy)phenyl]imidazo[1,2-a]pyridin-8-amine]"
13,840,"Fc1ccc(-c2nc3c(NC4CCCC4)cc(C(F)(F)F)cn3c2-c2ccnc(NC3CCCC3)n2)cc1 [Example 54, N-Cyclopentyl-3-[2-(cyclopentylamino)-4-pyrimidinyl]-2-(4-fluorophenyl)-6-(trifluoromethyl)imidazo[1,2-a]pyridin-8-amine]"
14,7000,"O=C(O)c1cccc(-c2nc3c(NC4CCCC4)cccn3c2-c2ccnc(NC3CCCC3)n2)c1 [Example 55, 3-{8-(Cyclopentylamino)-3-[2-(cyclopentylamino)pyrimidin-4-yl]imidazo[1,2-a]pyridin-2-yl}benzoic acid]"
15,200,Oc1cccn2c(-c3ccnc(NC4CCCC4)n3)c(-c3ccc(F)cc3)nc12 [Example 58]
